We go through seven molecules from paper PMC3620320, “Differential Lipid Dependence of the Function of Bacterial Sodium Channels” (PLoS ONE, 2013).

The target of data set [1] is T1, pore-only NavMs (Magnetococcus marinus, UniProt A0L5S6).
T1 construct: gene Mmc1_0798; purified from decyl maltoside; tetramer; reconstituted in liposomes
T1 sequence (A0L5S6 130-237): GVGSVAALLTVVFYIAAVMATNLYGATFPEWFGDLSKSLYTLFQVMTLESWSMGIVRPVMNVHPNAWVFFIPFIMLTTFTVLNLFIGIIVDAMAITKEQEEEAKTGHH
The experiment in a line: […]+ uptake into proteoliposomes. The data set is classed as biochemical. The conditions noted are these: 3:1 POPE:guest lipid, pH 7.5, 60 min; small but significant activation.

The target of data set [2] is T2, NaChBac (Halalkalibacterium halodurans, UniProt Q9KCR8).
T2 construct: gene BH1501; full-length, expressed in E. coli, hexa-His tag cleaved with thrombin; ~31 kDa monomer; tetramer; reconstituted in liposomes
T2 sequence (Q9KCR8 1-274): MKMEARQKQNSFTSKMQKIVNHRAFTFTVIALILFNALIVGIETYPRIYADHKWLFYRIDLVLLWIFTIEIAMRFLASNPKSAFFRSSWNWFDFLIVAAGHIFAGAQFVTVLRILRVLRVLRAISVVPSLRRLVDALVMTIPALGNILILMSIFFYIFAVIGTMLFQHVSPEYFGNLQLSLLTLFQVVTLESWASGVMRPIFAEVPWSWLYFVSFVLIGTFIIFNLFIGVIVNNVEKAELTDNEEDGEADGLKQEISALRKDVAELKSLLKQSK
The data set can be described thus: […]+ uptake into proteoliposomes. The data set is classed as biochemical. The conditions noted are these: 3:1 POPE:guest lipid, pH 7.5, 120 min; activator, greatest activity of guest lipids tested, modest variation.

In data set [3] the target is T3, NavMs (Magnetococcus marinus, UniProt A0L5S6).
T3 construct: gene Mmc1_0798; expressed in E. coli, hexa-His tag cleaved with thrombin; tetramer; reconstituted in liposomes
T3 sequence (A0L5S6 1-239 limits assumed): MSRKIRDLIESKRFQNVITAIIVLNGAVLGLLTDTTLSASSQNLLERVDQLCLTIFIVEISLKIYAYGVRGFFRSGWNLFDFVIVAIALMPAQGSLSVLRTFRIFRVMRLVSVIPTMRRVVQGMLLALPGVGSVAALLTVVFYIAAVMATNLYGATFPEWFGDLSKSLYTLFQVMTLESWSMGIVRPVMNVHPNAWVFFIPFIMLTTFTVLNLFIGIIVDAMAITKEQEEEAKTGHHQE
The experiment in a line: […]+ uptake into proteoliposomes. In kind it is biochemical. The conditions noted are these: 3:1 POPE:guest lipid, pH 7.5, 60 min; activator, greatest activity of guest lipids tested.

In data set [4] the target is NavSp pore-only construct (voltage sensor subdomain removed) (Silicibacter pomeroyi). The experiment in a line: SEC; gel filtration of pore-only constructs in decyl maltoside (0.2% DM); elution at tetramer mass plus DM micelle (~30 kDa). Background: SEC sorts molecules by how far they enter the pores of the column.
Data set [5] has as its target NavSp, voltage-gated sodium channel from Silicibacter pomeroyi (Silicibacter pomeroyi) (UniProt F7IVA8). The experiment in a line: SEC; Superdex 200 10/300 GL; 10 mM Tris-HCl pH 7.5, 100 mM NaCl, 0.02% NaN3, 0.25% Cymal-5; elution at tetramer mass plus Cymal-5 micelle (~23 kDa).
Data set [6] addresses T4, NavSp (Ruegeria pomeroyi, UniProt F7IVA8).
T4 construct: gene SPO0030; full-length, expressed in E. coli, N-terminal hexa-His tag cleaved with thrombin; 258 amino acids; ~29 kDa monomer; tetramer; reconstituted in liposomes
T4 sequence (F7IVA8 1-258): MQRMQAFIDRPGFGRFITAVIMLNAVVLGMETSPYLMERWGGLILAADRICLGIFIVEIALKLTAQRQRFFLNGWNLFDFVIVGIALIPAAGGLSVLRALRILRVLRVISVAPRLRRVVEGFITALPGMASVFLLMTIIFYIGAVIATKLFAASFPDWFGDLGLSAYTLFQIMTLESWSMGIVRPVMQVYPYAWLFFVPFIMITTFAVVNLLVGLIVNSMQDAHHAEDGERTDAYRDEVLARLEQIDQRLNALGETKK
The data set can be described thus: […]+ uptake into proteoliposomes. In kind it is biochemical. The conditions noted are these: 3:1 POPE:PI liposomes with 1% PI(4,5)P2, pH 7.5; inhibitor.

Data set [7] deals with the molecule itself. The experiment in a line: SEC; Superdex 200 10/300 GL; 10 mM Tris-HCl pH 7.5, 100 mM NaCl, 0.02% NaN3, 0.25% Cymal-5; elution at tetramer mass plus Cymal-5 micelle (~23 kDa).
Data set [8] deals with the molecule itself. The experiment in a line: SEC; gel filtration of pore-only constructs in decyl maltoside (0.2% DM); elution at tetramer mass plus DM micelle (~30 kDa).

Regarding `CCCCCCCC/C=C\CCCCCCCC(=O)OC[C@H](COP(=O)(O)OCC(O)COP(=O)(O)OC[C@@H](COC(=O)CCCCCCC/C=C\CCCCCCCC)OC(=O)CCCCCCC/C=C\CCCCCCCC)OC(=O)CCCCCCC/C=C\CCCCCCCC` (some centres unmarked) [CL, 18∶1 cardiolipin], the “22Na+ uptake into proteoliposomes” value in data set [1] was “small but significant increase in activity when CL was present in the liposomes”. In the case of `CCCCCCCC/C=C\CCCCCCCC(=O)O[C@H](COC(=O)CCCCCCCCCCCCCCC)COP(=O)(O)OCC(O)CO` (some centres unmarked) [PG, 1-palmitoyl 2-oleoyl phospatidyl glycerol], the “22Na+ uptake into proteoliposomes” value was “NavMs and NaChBac also showed maximal activity with a negatively-charged lipid” in data set [2]; “NavMs and NaChBac also showed maximal activity with a negatively-charged lipid” in data set [3]. Broadly, the stoichiometry N is the number of molecules, sites or subunits per partner or assembly. Regarding “NavSp pore-only construct (voltage sensor subdomain removed) (domain or fragment)”, in data set [4], the stoichiometry N came out at 4.

As for “NavSp, voltage-gated sodium channel from Silicibacter pomeroyi (from UniProt F7IVA8 1-258) (natural protein)”, the stoichiometry N in data set [5] turned out to be 4. With “phosphatidylinositol 4,5-bisphosphate [PI(4,5)P2]”, the “% inhibition at 1% PI(4,5)P2” value in data set [6] was ~ 50%.

B1: NaChBac, voltage-gated sodium channel from Bacillus halodurans (natural protein, UniProt Q9KCR8 1-274, looked up)
chain: T2 sequence (Q9KCR8 1-274)
notes: NaChBac, voltage-gated sodium channel of Bacillus halodurans, Uniprot ID Q9KCR8, full length; pET15b vector was bought; source: E. coli, purified (DDM solubilisation, Ni-NTA in Cymal-5, thrombin, gel filtration)
As for B1, the “stoichiometry N” value in data set [7] stood at 4.

B2: NavMs pore-only construct (voltage sensor subdomain removed) (domain or fragment, Magnetococcus spirillium (strain MC-1))
chain: T1 sequence (A0L5S6 130-237)
notes: NavMs of Magnetococcus spirillium (strain MC-1), Uniprot ID printed as AOL5S6 (A0L5S6), pore-only construct without the voltage sensor subdomain; PDB 4F4L is the cited crystal structure of the NavMs pore; also called pore-only NavMs; source: E. coli, purified in decyl maltoside (DM)
In the case of B2, the “stoichiometry N” value in data set [8] came out at 4.
